Measured values: patent US4065557A, “Amino sugars and their use in improving the meat:fat ratio in animals” (Bayer Aktiengesellschaft, priority 1974, dated 1977)

How the values were obtained:
[1] = target: T1, saccharase (Sus scrofa, UniProt P56729); experiment: In vitro saccharase test; type: biochemical, pig; conditions: for saccharase inhibitor specific activity: sucrose, pH 6.0, 35° C
T1 construct: from tissue; host or cells: mucous membrane of the small intestine of the pig, solubilized according to Borgstrom and Dahlquist 1958
T1 sequence (P56729 with tags, fused parts or gaps limits assumed): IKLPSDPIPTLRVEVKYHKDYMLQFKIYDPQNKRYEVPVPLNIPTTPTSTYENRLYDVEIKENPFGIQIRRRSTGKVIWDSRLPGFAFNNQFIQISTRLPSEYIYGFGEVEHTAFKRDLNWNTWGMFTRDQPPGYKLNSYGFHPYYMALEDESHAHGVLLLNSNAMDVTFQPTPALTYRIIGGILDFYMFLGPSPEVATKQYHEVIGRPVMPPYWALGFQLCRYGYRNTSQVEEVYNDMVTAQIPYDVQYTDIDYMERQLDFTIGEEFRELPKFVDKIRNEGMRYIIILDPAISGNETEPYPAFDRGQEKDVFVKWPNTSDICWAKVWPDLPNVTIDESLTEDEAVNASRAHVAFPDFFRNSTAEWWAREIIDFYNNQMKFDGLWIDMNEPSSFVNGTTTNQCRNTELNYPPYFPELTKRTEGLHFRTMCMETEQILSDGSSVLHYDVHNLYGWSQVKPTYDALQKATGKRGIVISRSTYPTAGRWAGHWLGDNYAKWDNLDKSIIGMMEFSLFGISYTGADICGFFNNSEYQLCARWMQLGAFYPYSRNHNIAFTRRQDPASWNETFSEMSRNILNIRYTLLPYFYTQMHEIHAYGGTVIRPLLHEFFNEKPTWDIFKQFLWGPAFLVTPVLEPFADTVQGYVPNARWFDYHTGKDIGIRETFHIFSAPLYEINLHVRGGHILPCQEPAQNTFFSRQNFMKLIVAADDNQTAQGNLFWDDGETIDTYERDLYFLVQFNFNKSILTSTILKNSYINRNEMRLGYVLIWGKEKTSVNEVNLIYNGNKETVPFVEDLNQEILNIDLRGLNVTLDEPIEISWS
T1 sequence (P56729 with tags, fused parts or gaps partner limits assumed): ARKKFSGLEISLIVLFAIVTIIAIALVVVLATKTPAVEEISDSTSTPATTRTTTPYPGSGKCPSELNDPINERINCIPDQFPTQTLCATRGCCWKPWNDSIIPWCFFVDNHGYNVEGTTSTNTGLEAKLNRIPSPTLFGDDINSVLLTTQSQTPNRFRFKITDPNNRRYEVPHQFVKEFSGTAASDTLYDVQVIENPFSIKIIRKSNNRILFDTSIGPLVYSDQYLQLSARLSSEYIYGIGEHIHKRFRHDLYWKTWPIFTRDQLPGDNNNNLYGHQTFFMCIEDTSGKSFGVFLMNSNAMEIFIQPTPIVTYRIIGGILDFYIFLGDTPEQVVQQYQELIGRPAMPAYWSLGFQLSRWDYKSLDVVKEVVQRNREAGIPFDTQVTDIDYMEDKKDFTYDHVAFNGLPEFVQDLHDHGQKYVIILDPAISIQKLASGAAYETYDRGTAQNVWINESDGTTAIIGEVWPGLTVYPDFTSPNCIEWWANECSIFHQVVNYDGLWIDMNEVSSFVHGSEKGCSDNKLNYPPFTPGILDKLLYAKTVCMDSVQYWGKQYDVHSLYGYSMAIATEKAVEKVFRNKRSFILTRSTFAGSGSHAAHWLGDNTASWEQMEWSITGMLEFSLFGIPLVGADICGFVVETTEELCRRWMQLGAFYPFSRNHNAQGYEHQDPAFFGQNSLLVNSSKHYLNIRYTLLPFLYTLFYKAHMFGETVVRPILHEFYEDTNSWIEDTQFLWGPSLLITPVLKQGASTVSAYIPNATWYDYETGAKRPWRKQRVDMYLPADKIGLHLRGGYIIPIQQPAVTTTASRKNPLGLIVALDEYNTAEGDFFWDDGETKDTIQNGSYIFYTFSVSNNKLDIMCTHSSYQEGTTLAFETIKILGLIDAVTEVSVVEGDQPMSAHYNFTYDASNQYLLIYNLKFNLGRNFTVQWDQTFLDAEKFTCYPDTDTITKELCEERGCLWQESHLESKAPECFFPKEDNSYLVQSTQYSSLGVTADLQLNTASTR
Description: One saccharase inhibitor unit (SIU) is defined as the amount of inhibitor which inhibits two saccharase units to the extent of 50%. One saccharase unit (SU) is the amount of enzyme which under the test conditions specified splits 1 μmol of sucrose to glucose and fructose per minute. The μmols of glucose formed are determined quantitatively by means of the glucose oxidase reaction under conditions under which a further splitting of the sucrose by the saccharase no longer takes place. To carry out the test, 0.05 ml of solubilized saccharase [from the mucous membrane of the small intestine of the pig, according to B. Borgstrom, A. Dahlquist, Acta Chem. Scand. […] The mixture is equilibrated for 10 minutes at 35° C and 0.1 ml of an 0.05 M sucrose solution in 0.1 m sodium maleate buffer of pH 6.0, pre-warmed to 35° C, is then added. The mixture is incubated for 20 minutes at 35° C, the saccharase reaction is stopped by addition of 1 ml of glucose oxidase reagent, and the incubation is continued for a further 30 minutes at 35° C. […] Thereafter, 1 ml of 50% strength H2 SO4 is added and a measurement carried out at 545 nm against a corresponding blank.

[2] = target: T2, pancreas-α-amylase (Sus scrofa, UniProt P00690); experiment: In vitro amylase test; type: biochemical; conditions: isolated product; starch, pH 6.9, 35° C
T2 sequence (P00690 16-511): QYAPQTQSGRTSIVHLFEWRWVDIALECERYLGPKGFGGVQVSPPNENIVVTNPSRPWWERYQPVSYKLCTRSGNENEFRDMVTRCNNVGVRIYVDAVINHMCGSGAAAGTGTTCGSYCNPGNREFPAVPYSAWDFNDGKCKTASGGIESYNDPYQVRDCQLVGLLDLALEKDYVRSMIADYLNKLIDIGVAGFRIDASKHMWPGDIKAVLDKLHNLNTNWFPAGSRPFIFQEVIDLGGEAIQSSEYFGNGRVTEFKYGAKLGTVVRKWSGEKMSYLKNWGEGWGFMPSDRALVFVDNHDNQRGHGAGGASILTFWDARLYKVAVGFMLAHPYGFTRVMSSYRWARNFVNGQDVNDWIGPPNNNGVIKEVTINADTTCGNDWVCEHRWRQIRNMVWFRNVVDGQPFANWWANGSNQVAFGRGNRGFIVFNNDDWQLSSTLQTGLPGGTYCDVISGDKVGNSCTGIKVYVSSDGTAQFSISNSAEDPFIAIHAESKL
Description: One amylase unit (AU) is the amount of enzyme which under the test conditions specified below splits 1 μequivalent of glucoside bonds in the starch per minute. […] To carry out the test, 0.1 ml of amylase solution (20-22 AU/ml) are mixed with 0-10 μg of inhibitor or 0-20 μl of the solution to be tested in 0.4 ml of 0.02 M sodium glycerophosphate buffer/0.001 M CaCl2, pH 6.9, and the mixture is equilibrated for 10-20 minutes in a water bath at 35° C. […] To develop the color, the batch is heated for 5 minutes on a boiling water bath and then cooled, and 10 ml of distilled water are added. The extinction at 540 nm is measured against a correspondingly made-up blank without amylase. […] The percentage inhibition is plotted as a function of the quotient [formula]

[3] = test system: starch digestion; experiment: In vivo starch digestion (starch feeding test)
[4] = Solubility; type: physicochemical

| in vitro saccharase inhibiting activity ([1]; isomer isolated on Dowex 50 W X 4) | amylase inhibitor specific activity [2] | saccharase inhibition relative to the derivative having two units ([1]; in vitro) | saccharase inhibitor specific activity [1] | saccharase inhibitor specific activity ([1]; listed as compound with one glucose unit) | solubility ([4]; water, dimethylformamide, dimethylsulfoxide, methanol and hot ethanol) | in vitro saccharase inhibition (in words) ([1]; in vitro) | saccharase inhibitor specific activity ([1]; listed as compound with 2 glucose units) | saccharase inhibitor specific activity ([1]; listed as compound with 2 units) | saccharase inhibitor specific activity ([1]; listed as compound with two glucose units) | solubility in water ([4]; amorphous solid) | SMILES | in vivo inhibition of starch digestion (in words) [3] |
| --- | --- | --- | --- | --- | --- | --- | --- | --- | --- | --- | --- | --- |
| 19,000 SIE/g |  |  |  |  |  |  |  |  |  |  | C[C@H]1O[C@H](O[C@H]2[C@H](O)[C@@H](O)[C@@H](O[C@H]3[C@H](O)[C@@H](O)[C@@H](O[C@H]4[C@H](O)[C@@H](O)C(O)O[C@@H]4CO)O[C@@H]3CO)O[C@@H]2CO)[C@H](O)[C@@H](O)[C@@H]1N[C@H]1C=C(CO)[C@@H](O)[C@H](O)[C@H]1O (stereo partly drawn) [isomer of Formula V, O-{4,5-bisdesoxy-4-[1S-(1,4,6/5)-4,5,6-trihydroxy-3-hydroxymethylcyclohex-2-en-1-ylamino]-α-D-glucopyranosyl}-(1→4)-O-α-D-glucopyranosyl-(1→4)-O-α-D-glucopyranosyl-(1→4)-D-glycopyranose] |  |
|  | 0.3 × 10^6 AIU/g | only half as much | 30,000 SIU/g | 35,000 SIU/g | good solubility |  |  |  |  |  | C[C@H]1O[C@H](O[C@H]2[C@H](O)[C@@H](O)C(O)O[C@@H]2CO)[C@H](O)[C@@H](O)[C@@H]1N[C@H]1C=C(CO)[C@@H](O)[C@H](O)[C@H]1O (stereo partly drawn) [compound having one glucose unit, O-{4,6-bisdesoxy-4-[1 S-(1,4,6/5)-4,5,6-trihydroxy-3-hydroxymethylcyclohex-2-en-1-ylamino]-α-D-glucopyranosyl}-(1→4)-D-glucopyranose] | much higher than would be expected from in vitro amylase inhibition |
|  | 0.3 × 10^6 AIU/g |  | 50,000 SIU/g |  |  | most pronounced | 60,000 SIU/g | 68,000 SIU/g | 65,000 SIU/g | readily water-soluble | C[C@H]1O[C@H](O[C@H]2[C@H](O)[C@@H](O)[C@@H](O[C@H]3[C@H](O)[C@@H](O)C(O)O[C@@H]3CO)O[C@@H]2CO)[C@H](O)[C@@H](O)[C@@H]1N[C@H]1C=C(CO)[C@@H](O)[C@H](O)[C@H]1O (stereo partly drawn) [compound having 2 glucose units, O-{4,6-bisdesoxy-4-[1 S-(1,4,6/5)-4,5,6-trihydroxy-3-hydroxymethylcyclohex-2-en-1-ylamino]-α-D-glucopyranosyl}-(1→4)-O-α-D-glucopyranosyl-(1→4)-D-glucopyranose] | much higher than would be expected from in vitro amylase inhibition |
